US20260285853A1, “COMPOUNDS AND METHODS FOR MODULATING SPLICING” (REMIX THERAPEUTICS INC., priority 2023, published 2026)
Where two headings read alike, the source gives them in different places.

Tests used:
Format in all cases: cell-based
HTT mRNA [1] = assay: Splicing RT-qPCR assay (THP), Table 2A
MYB mRNA [2] = assay: Splicing RT-qPCR assay (THP), Table 2A
HTT mRNA [3] = assay: Gene panel canonical junction qPCR assay, decrease in CJ mRNA, Table 3
Summary of the method: (§1)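 Canonical exon-junction (CJ) transcript measured by 5′ nuclease RT-qPCR, normalized to GAPDH, GUSB or PPIA and to DMSO control (2^(−ΔΔCt)). A673 or K562 cells treated 24 h at 37° C with an 11-point 3-fold dilution series, top 10 uM, DMSO ≤0.25%. IC50 from 4-parameter logistic fit of percentage CJ decrease.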

MYB mRNA [4] = assay: as above
Summary of the method: as §1

[5] = system: SH-SY5Y (human neuroblastoma) cells; assay: Cell viability, Cell Titer Glo 2.0 assay; conditions: read-out: Viability SHSY5Y.3 GI50
Summary of the method: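 SH-SY5Y cells were exposed to serially diluted compounds in IMDM with 10% FBS and 0.1% DMSO for 72 hours at 37° C., 5% CO2. Viability was measured by CellTiter-Glo 2.0 luminescence, with medium-only wells as blank.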

[6] = Table 2A, THP, HTT alternative junction (AJ) mRNA, read-out: HTT AJ (AC50, increase in alternative junction mRNA)
[7] = Table 2A, THP, HTT canonical junction (CJ) mRNA, read-out: HTT CJ (IC50, decrease in canonical junction mRNA)
[8] = Table 2A, THP, MYB alternative junction (AJ) mRNA, read-out: MYB AJ (AC50, increase in alternative junction mRNA)
[9] = Table 2A, THP, MYB canonical junction (CJ) mRNA, read-out: MYB CJ (IC50, decrease in canonical junction mRNA)
[10] = decrease in CJ mRNA levels, canonical junction qPCR, gene panel
[11] = Table 2A (THP), AJ mRNA increase, read-out: HTT AJ (increase in alternative junction mRNA, AC50)
[12] = Table 2A (THP), CJ mRNA decrease, read-out: HTT CJ (decrease in canonical junction mRNA, IC50)
[13] = Table 2A (THP), AJ mRNA increase, read-out: MYB AJ (increase in alternative junction mRNA, AC50)
[14] = Table 2A (THP), CJ mRNA decrease, read-out: MYB CJ (decrease in canonical junction mRNA, IC50)
[15] = decrease in canonical junction (CJ) mRNA, gene panel qPCR, Table 3

| SMILES | AC50 (HTT mRNA [1]; [6]) | IC50 (HTT mRNA [1]; [7]) | AC50 (MYB mRNA [2]; [8]) | IC50 (MYB mRNA [2]; [9]) | IC50 (HTT mRNA [3]; [10]) | IC50 (MYB mRNA [4]; [10]) | GI50 [5] | AC50 (HTT mRNA [1]; [11]) | IC50 (HTT mRNA [1]; [12]) | AC50 (MYB mRNA [2]; [13]) | IC50 (MYB mRNA [2]; [14]) | IC50 (HTT mRNA [3]; [15]) | IC50 (MYB mRNA [4]; [15]) |
| --- | --- | --- | --- | --- | --- | --- | --- | --- | --- | --- | --- | --- | --- |
| Cc1cn2cc(NC(=O)c3ccc(N4CCC(NC5CC5)CC4)c4cn(C)nc34)nc2c(CNC2(C)COC2)n1 [Compound 804, 4-[4-(cyclopropylamino)-1-piperidyl]-2-methyl-N-[6-methyl-8-[[(3-methyloxetan-3-yl)amino]methyl]imidazo[1,2-a]pyrazin-2-yl]indazole-7-carboxamide] | > 10000 nM | > 10000 nM | > 10000 nM | > 10000 nM | > 10000 nM | > 10000 nM | 1000 to 10000 nM | – | – | – | – | – | – |
| CNCC1CN(c2ccc(C(=O)Nc3cn4cc(C)nc(CNS(C)(=O)=O)c4n3)c3nn(C)cc23)C1 [Compound 863] | > 10000 nM | > 10000 nM | > 10000 nM | > 10000 nM | > 10000 nM | > 10000 nM | > 10000 nM | – | – | – | – | – | – |
| COc1nc2c(C(=O)Nc3cc(CO)c4nn(C)cc4c3)ccc(N3C[C@H](C)N[C@@H](C)C3)c2s1 [Compound 783, 7-((3S,5S)-3,5-dimethylpiperazin-1-yl)-N-(7-(hydroxymethyl)-2-methyl-2H-indazol-5-yl)-2-methoxybenzo[d]thiazole-4-carboxamide] | 1000 to 10000 nM | > 10000 nM | < 100 nM | < 100 nM | > 10000 nM | < 100 nM | 100 to 1000 nM | – | – | – | – | – | – |
| CCNC1CCN(c2ccc(C(=O)Nc3cc(C)c(=O)n(C)c3)c3nn(C)cc23)CC1 [Compound 561, N-(1,5-dimethyl-6-oxo-3-pyridyl)-4-[4-(ethylamino)-1-piperidyl]-2-methyl-indazole-7-carboxamide] | – | – | – | – | – | – | > 10000 nM | > 10000 nM | > 10000 nM | > 10000 nM | 1000 to 10000 nM | > 10000 nM | 1000 to 10000 nM |
| Cc1cn2cc(NC(=O)c3c(F)cc(N4CCC(NC5CC5)CC4)c4cn(C)nc34)c(Oc3ccccc3)cc2n1 [Compound 417, 4-[4-(cyclopropylamino)-1-piperidyl]-6-fluoro-2-methyl-N-(2-methyl-7-phenoxyimidazo[1,2-a]pyridin-6-yl)-indazole-7-carboxamide] | – | – | – | – | – | – | 100 to 1000 nM | 1000 to 10000 nM | > 10000 nM | < 100 nM | < 100 nM | > 10000 nM | < 100 nM |
| COc1nc2c(C(=O)Nc3cc(F)c4nn(C)cc4c3)ccc(N3C[C@H](C)N[C@@H](C)C3)c2o1 [Compound 682, 7-[(3S,5S)-3,5-dimethylpiperazin-1-yl]-N-(7-fluoro-2-methyl-indazol-5-yl)-2-methoxy-1,3-benzoxazole-4-carboxamide] | 100 to 1000 nM | 100 to 1000 nM | < 100 nM | < 100 nM | 100 to 1000 nM | < 100 nM | < 100 nM | – | – | – | – | – | – |
| Cc1cn2cc(NC(=O)c3ccc(N4CCC5(CCN5)CC4)c4cn(C)nc34)nc2c(C)n1 [Compound 563, 4-(1,7-diazaspiro[3.5]nonan-7-yl)-N-(6,8-dimethyl-imidazo[1,2-a]pyrazin-2-yl)-2-methyl-indazole-7-carboxamide] | – | – | – | – | – | – | > 10000 nM | > 10000 nM | > 10000 nM | 100 to 1000 nM | 100 to 1000 nM | > 10000 nM | 100 to 1000 nM |
| CCNCC1CCN(c2cc(F)c(C(=O)Nc3cc4cn(C)nc4cc3OC)c3nn(C)cc23)C1 (stereo not drawn) [Compound 464, 4-(3-[(ethylamino)methyl]pyrrolidin-1-yl)-6-fluoro-N-(6-methoxy-2-methylindazol-5-yl)-2-methylindazole-7-carboxamide] | – | – | – | – | – | – | 100 to 1000 nM | 100 to 1000 nM | 100 to 1000 nM | 100 to 1000 nM | 100 to 1000 nM | 100 to 1000 nM | 100 to 1000 nM |
| COc1cc2nn(C)cc2cc1NC(=O)c1ccc(N2CCC3(CCN3)CC2)c2cn(C)nc12 [Compound 540] | – | – | – | – | – | – | 1000 to 10000 nM | 1000 to 10000 nM | 1000 to 10000 nM | < 100 nM | < 100 nM | 1000 to 10000 nM | < 100 nM |
| Cc1cn2cc(NC(=O)c3ccc(N4C[C@@H](C)N[C@@H](C)C4)c4c3OCO4)cc(F)c2n1 [Compound 643, 7-[(3S,5R)-3,5-dimethylpiperazin-1-yl]-N-(8-fluoro-2-methyl-imidazo[1,2-a]pyridin-6-yl)-1,3-benzodioxole-4-carboxamide] | 1000 to 10000 nM | 1000 to 10000 nM | 100 to 1000 nM | 100 to 1000 nM | 1000 to 10000 nM | 100 to 1000 nM | 1000 to 10000 nM | – | – | – | – | – | – |
| COc1cc2nn(C)cc2cc1NC(=O)c1ccc(N2CCNC(C)C2)c2cn(C)nc12 (stereo not drawn) [Compound 568] | – | – | – | – | – | – | 1000 to 10000 nM | 1000 to 10000 nM | 100 to 1000 nM | 100 to 1000 nM | 100 to 1000 nM | 100 to 1000 nM | 100 to 1000 nM |
| COc1cc2nn(C)cc2cc1C#Cc1ccc(N2CCC(NC3CC3)CC2)c2cn(C)nc12 [Compound 437, N-cyclopropyl-1-[7-[2-(6-methoxy-2-methyl-indazol-5-yl)ethynyl]-2-methyl-indazol-4-yl]-piperidin-4-amine] | – | – | – | – | – | – | 1000 to 10000 nM | > 10000 nM | > 10000 nM | > 10000 nM | > 10000 nM | > 10000 nM | > 10000 nM |
| Cc1cn2cc(NC(=O)c3ccc(N4CCC(NC5CC5)CC4)c4cn(C)nc34)cc2c(CNS(C)(=O)=O)n1 [Compound 570, 4-[4-(cyclopropyl-amino)-1-piperidyl]-N-[1-(methanesulfonamidometh-yl)-3-methyl-pyrrolo[1,2-a]-pyrazin-7-yl]-2-methyl-indazole-7-carboxamide] | – | – | – | – | – | – | > 10000 nM | > 10000 nM | > 10000 nM | > 10000 nM | > 10000 nM | > 10000 nM | > 10000 nM |
| COc1cc2nn(C)cc2cc1NC(=O)c1ccc(N2CCC(NC3CC3)CC2)c2cc(C)nn12 [Compound 619, 4-[4-(cyclopropylamino)-1-piperidyl]-N-(6-methoxy-2-methyl-indazol-5-y1)-2-methyl-pyrazolo[1,5-a]-pyridine-7-carboxamide] | 1000 to 10000 nM | 1000 to 10000 nM | 100 to 1000 nM | 100 to 1000 nM | 1000 to 10000 nM | 100 to 1000 nM | 1000 to 10000 nM | – | – | – | – | – | – |
| Cn1cc2cc(NC(=O)c3ccc(N4CCC(NC5CC5)CC4)c4cn(C)nc34)cc(Cn3nccn3)c2n1 [Compound 824] | > 10000 nM | > 10000 nM | 1000 to 10000 nM | 1000 to 10000 nM | > 10000 nM | 1000 to 10000 nM | 1000 to 10000 nM | – | – | – | – | – | – |
| Cc1nc2c(F)cc(NC(=O)c3ccc(N4CCC(NC5CC5)CC4)c4cn(C)nc34)cn2n1 [Compound 755, 4-[4-(cyclopropylamino)-1-piperidyl]-N-(8-fluoro-2-methyl-[1,2,4]triazolo[1,5-a]pyridin-6-yl)-2-methyl-indazole-7-carboxamide] | 1000 to 10000 nM | 1000 to 10000 nM | < 100 nM | 100 to 1000 nM | 1000 to 10000 nM | 100 to 1000 nM | 100 to 1000 nM | – | – | – | – | – | – |
| COc1cc2c(N3C[C@H](C)N[C@@H](C)C3)ccc(C(=O)Nc3cc(F)c4nn(C)cc4c3)n2n1 [Compound 697, 4-[(3S,5S)-3,5-dimethylpiperazin-1-yl]-N-(7-fluoro-2-methyl-indazol-5-yl)-2-methoxy-pyrazolo[1,5-a]pyridine-7-carboxamide] | < 100 nM | 100 to 1000 nM | < 100 nM | < 100 nM | 100 to 1000 nM | < 100 nM | < 100 nM | – | – | – | – | – | – |
| COc1nc2c(C(=O)Nc3ccc4nn(C)cc4n3)ccc(N3C[C@H](C)N[C@@H](C)C3)c2s1 [Compound 714, 7-[(3S,5S)-3,5-dimethylpiperazin-1-yl]-2-methoxy-N-(2-methylpyrazolo[4,3-b]pyridin-5-yl)-1,3-benzothiazole-4-carboxamide] | 100 to 1000 nM | 100 to 1000 nM | < 100 nM | < 100 nM | 100 to 1000 nM | < 100 nM | < 100 nM | – | – | – | – | – | – |
| Cc1cn2cc(NC(=O)c3ccc(N4CCNC(C)C4)c4cn(C)nc34)nc2c(C)n1 (stereo not drawn) [Compound 557] | – | – | – | – | – | – | 1000 to 10000 nM | > 10000 nM | > 10000 nM | 100 to 1000 nM | 100 to 1000 nM | > 10000 nM | 100 to 1000 nM |
| COc1cc2nn(C)cc2cc1NC(=O)c1ccc(N2CCC3(CCNC3)C2)c2cn(C)nc12 (stereo not drawn) [Compound 513] | – | – | – | – | – | – | > 10000 nM | > 10000 nM | > 10000 nM | 1000 to 10000 nM | 1000 to 10000 nM | > 10000 nM | 1000 to 10000 nM |
| Cc1cn2cc(NC(=O)c3ccc(N4CCC5(CCCN5)CC4)c4cn(C)nc34)nc2c(CNS(C)(=O)=O)n1 [Compound 826] | > 10000 nM | > 10000 nM | > 10000 nM | > 10000 nM | > 10000 nM | > 10000 nM | > 10000 nM | – | – | – | – | – | – |
